Counter-ions that a name gives are not always drawn. Some results are limits rather than exact numbers.

One assay addresses T1, NAMPT (Homo sapiens, UniProt P43490).
T1 construct: His tag; host or cells: E. coli
Briefly: Biochemical inhibition assay: NAMPT enzymatic reaction, NMN quantified by mass spectrometry. To be noted: NAMPT enzymatic reaction; read-out: Biochem IC50. In short, it runs like this: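 Inhibition of E. coli-expressed His-tagged human NAMPT, measured as NMN formation by mass spectrometry after a 30 min room-temperature reaction containing 1 μM NAM, 100 μM PRPP and 2.5 mM ATP.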

For assay [1], the system named is A2780 cells. Kind of assay: In-vitro cell proliferation assay (SRB), A2780 cells. Type of assay: cell-based. The settings on record: Homo sapiens, A2780, 72 h, A2780 cells, 72 hours, SRB assay; read-out: A2780 IC50. In short, it runs like this:
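Viable cells measured by SRB staining after 6% TCA fixation, absorbance 570 nm. Media-only background subtracted; % inhibition derived at two compound concentrations.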
(In general: In SRB staining, fixed cells bind dye roughly in proportion to their protein.)

Assay [2] has as its system A2780 cells. Kind of assay: Xenograft studies: A2780 tumors s.c. in C.B-17-Igh-1b-Prkdc scid mice. To be noted: female scid mice, p.o. BID for 5 or 10 days, dose selected from MTD study. In kind it is in vivo. The procedure:
C.B-17-Igh-1b-Prkdc^scid mice (female) were injected s.c. with 5×10^6 A2780 cells (NCI) in the left flank. 10-12 days later when tumors reached 100-200 mm3 in size, mice were randomized into treatment groups of 8 mice per group including vehicle control and reference standard groups. The compounds were formulated in 60:30:10 PEG-400: D5W: Ethanol and administered p.o., at the dose volume of 10 ml/kg BID for a duration of 5 or 10 days. The dose used for efficacy was selected from the MTD (Maximum Tolerated Dose) study. Mice were weighed and tumors measured using vernier calipers every alternate day. Tumor volume was calculated according to the formula (length×width^2)/2. All animal work was approved by the Institutional Animal Care and Use Committee of Biological Resource Centre, Singapore.

For another assay, the system named is U251 cells. Briefly: In-vitro cell proliferation assay (SRB), U251 cells. Type of assay: cell-based. To be noted: Homo sapiens, U-251, 72 hours. As for the experimental part: After overnight incubation at 37° C. and 5% CO2, the compound titrations were performed in a separate dilution plate by serially diluting the compounds in DMSO to make a 1000× stock. The compounds were then further diluted to 10× final concentration in culture media, whereupon 20 μL of each dilution was added to the plated cells with controls (e.g. DMSO and blank) to make a final volume of 5 200 μL. The final DMSO concentration in each well was 0.1%. The plates were then incubated for 72 hours at 37° C. in a 5% CO2 incubator. The number of viable cells was then assessed using sulforhodamine B (SRB) assay. Cells were fixed at 4° C. for 1 hour with the addition of 50 μL 30% trichloroacetic acid (TCA) to make a final concentration of 6% 10 TCA. The plates were washed four times with H2O and allowed to dry for at least 1 hour, whereupon 100 μL of a 4% SRB in 1% acetic acid solution was added to each well and incubated at room temperature for at least 30 minutes. The plates were then washed three times with 1% acetic acid, dried, and treated with 100 μL of 10 mM Tris-Base solution. The plates were then read in a microplate reader at an absorbance of 570 nm. 15 Background was generated on a separate plate with media only. Method for Determining % Inhibition First, the signals from the background plate are averaged, then the background was subtracted from the test plates.

T1 sequence (P43490 whole entry): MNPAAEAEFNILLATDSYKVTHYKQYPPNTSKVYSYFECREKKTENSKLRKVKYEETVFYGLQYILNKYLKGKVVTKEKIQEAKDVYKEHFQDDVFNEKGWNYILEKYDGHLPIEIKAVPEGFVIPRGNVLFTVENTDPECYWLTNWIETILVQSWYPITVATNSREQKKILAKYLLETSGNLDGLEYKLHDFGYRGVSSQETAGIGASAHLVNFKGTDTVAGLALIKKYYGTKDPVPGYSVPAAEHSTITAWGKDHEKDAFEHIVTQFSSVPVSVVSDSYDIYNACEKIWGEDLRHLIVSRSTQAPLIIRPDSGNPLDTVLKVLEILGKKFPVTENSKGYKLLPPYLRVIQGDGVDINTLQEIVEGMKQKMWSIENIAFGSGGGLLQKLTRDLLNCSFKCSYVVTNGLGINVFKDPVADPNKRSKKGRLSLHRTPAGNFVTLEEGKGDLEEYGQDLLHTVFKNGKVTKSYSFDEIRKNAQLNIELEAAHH

On to `O=C(NCc1ccc(S(=O)(=O)Nc2ccccc2OC(F)(F)F)cc1)c1cc2cnccc2[nH]1` [N-[(4-{[2-(trifluoromethoxy)phenyl]sulfamoyl}phenyl)methyl]-1H-pyrrolo[3,2-c]pyridine-2-carboxamide], for which the IC50 (usually the midpoint of a concentration-inhibition curve) on NAMPT was 0.006 µM; with A2780 cells [1], 0.001 µM. In the assay with A2780 cells [2], the “Effect on tumor in A2780 xenograft” value is “tumor stasis”. The compound `NC1CCN(S(=O)(=O)c2ccc(CNC(=O)c3cc4ccncc4o3)cc2)C1` (stereo not shown) [N-{[4-(3-aminopyrrolidine-1-sulfonyl)phenyl]methyl}furo[2,3-c]pyridine-2-carboxamide hydrochloride] showed an IC50 in the assay with U251 cells of 1.85 µM. In the case of `O=C(NCc1ccc(S(=O)(=O)c2ccccc2)cc1)c1cc2ccncc2s1` [N-{[4-(benzenesulfonyl)phenyl]methyl}thieno[2,3-c]pyridine-2-carboxamide], the IC50 came to 0.011 µM on NAMPT and 0.012 µM in the assay with A2780 cells [1]. The “Effect on tumor in A2780 xenograft” value in the assay on A2780 cells [2] was “tumor regression”. In the case of `O=C(NCc1ccc(S(=O)(=O)c2ccccc2)cc1)c1ccc2cncn2c1` [N-{[4-(benzenesulfonyl)phenyl]methyl}imidazo[1,5-alpyridine-6-carboxamide], the IC50 in the assay on U251 cells was greater than 2 µM. Same read-out and setting: as for `O=C(NCc1ccc(S(=O)(=O)c2ccccc2)nc1)c1cc2cnccc2[nH]1` [N-{[6-(benzenesulfonyl)pyridin-3-yl]methyl}-1H-pyrrolo[3,2-c]pyridine-2-carboxamide], the figure is greater than 2 µM; as for `O=C(NCc1ccc(S(=O)(=O)N2CCNCC2)cc1)c1ccc2nccn2c1` [N-{[4-(piperazine-1-sulfonyl)phenyl]methyl}imidazo[1,2-a]pyridine-6-carboxamide], 0.556 µM; as for `O=C(NCc1ccc(S(=O)(=O)c2ccccc2)cc1)c1cc2ncccc2s1` [N-{[4-(benzenesulfonyl)phenyl]methyl}thieno[3,2-b]pyridine-2-carboxamide], greater than 2 µM.

On to `CC(=O)c1ccc(S(=O)(=O)c2ccc(CNC(=O)c3cc4cnccc4[nH]3)cc2)cc1` [N-({4-[(4-acetylbenzene)sulfonyl]phenyl}methyl)-1H-pyrrolo[3,2-c]pyridine-2-carboxamide], for which the IC50 on NAMPT came out at 0.007 µM; in the assay with A2780 cells [1] it was 0.003 µM. Moreover, the “Effect on tumor in A2780 xenograft” value in the assay with A2780 cells [2] is “tumor regression”. As for `O=C(NCc1ccc([S+]([O-])c2cc(F)cc(F)c2)cc1)c1ccc2nccn2c1` (stereo not shown) [N-({4-[(3,5-difluorobenzene)sulfinyl]phenyl}methyl)imidazo[1,2-a]pyridine-6-carboxamide], in the assay on U251 cells, the IC50 worked out at 0.0066 µM. Still for that read-out and setting: the result for `NC1CCN(S(=O)(=O)c2ccc(CNC(=O)c3cc4ccncc4s3)cc2)C1` (stereo not shown) [N-{[4-(3-aminopyrrolidine-1-sulfonyl)phenyl]methyl}thieno[2,3-c]pyridine-2-carboxamide hydrochloride] reads 0.31 µM. As for `O=C(NCc1ccc(S(=O)(=O)c2ccc(F)cc2)cc1)c1cc2cnccc2[nH]1` [N-({4-[(4-fluorobenzene)sulfonyl]phenyl}methyl)-1H-pyrrolo[3,2-c]pyridine-2-carboxamide], the IC50 was 0.038 µM on NAMPT and 0.008 µM in the assay on A2780 cells [1]. Besides, in the assay with A2780 cells [2], the “Effect on tumor in A2780 xenograft” value is “tumor regression”. `O=C(NCc1ccc(S(=O)(=O)c2ccccc2)cc1)c1cc2ncccc2o1` [N-{[4-(benzenesulfonyl)phenyl]methyl}furo[3,2-b]pyridine-2-carboxamide] displayed an IC50 in the assay on U251 cells of 0.545 µM.

On to `O=C(NCc1ccc(S(=O)(=O)N2CCNCC2)cc1)c1cc2ccncc2s1` [N-{[4-(pipcrazine-1-sulfonyl)phenyl]methyl}thieno[2,3-c]pyridine-2-carboxamide], for which the IC50 with U251 cells is 0.405 µM.

`O=C(NCc1ccc(S(=O)(=O)c2ccccc2)cc1)c1cn2ccnc2cn1` [N-{[4-(benzenesulfonyl)phenyl]methyl}imidazo[1,2-alpyrazinc-6-carboxamide]: the IC50 in the assay with U251 cells is greater than 2 µM.
